For two molecules, pKa results are on record in US9776127B2, “Reversible light driven gas absorbent solution and process” (Commonwealth Scientific and Industrial Research Organisation, priority 2013, dated 2017).

The nature of this data set: pKa of photoactive compound in ground and excited state. It counts as physicochemical. From the text: The operating range of the photoactive compound may be related to the difference in pKa between the excited and ground states of the photoactive molecule. The operating range may be ascertained by determining the pKa of the photoactive compound in its ground state (e.g. the base or relatively weak acid form) and the pKa of the compound in its excited state (e.g. the relatively strong acidic form). The difference in pKa between these two forms therefore defines the operating range of the photoactive compound. […] The requirement to select an amine for use with a photochromic molecule that results in an absorbent pH within the working range of the photochromic molecule can be illustrated by calculation. […] The pH of a mixture containing 0.5 M amine and 0.25 M MEH (ground state) as a function of absorbed CO2 and 0.5 M amine and 0.25 spiropyran (excited state) as function of absorbed CO2 was calculated using the published method Puxty, […]. Int. […]. Gas Control, 17 (2013), 215-224. The difference in pH of the absorbent at each concentration of absorbed CO2 is indicative of the ability of excitation to remove CO2 from the absorbent. […] Chem. Thermodynamics, 51 (2012), 97-102 and Fernandes, D., et al., J. Chem. Thermodynamics, 54 (2012), 183-191.

For the molecule `O=[N+]([O-])CCc1c(O)ccc2ccccc12` [1-(2-nitroethyl)-2-naphthol], the pKa came out at 1.9 (excited state) and 9.7 (ground state).
Molecule `CC1(C)C(/C=C/c2ccccc2O)=[N+](CCCS(=O)(=O)[O-])c2ccccc21` [MEH] displayed a pKa (aqueous solution, ground state, aqueous solution at room temperature) of 7.8.

For orientation: pKa means the pH at which an ionisable group is half protonated. A high value points to a group that holds its proton tightly.
